Laboratory results published in patent publication US11999727B2 (Tango Therapeutics, Inc., priority 2020, dated 2024).

Key:
[1] = biological target: T1, PRMT5 (Homo sapiens, UniProt O14744); experiment: PRMT5 biochemical IC50 assay with SAM as cofactor; conditions: PRMT5, SAM as cofactor; read-out: SAM IC50
T1 construct: purchased Viva (custom protein)

[2] = biological target: T1, PRMT5; experiment: PRMT5 biochemical IC50 assay with MTA as cofactor; conditions: PRMT5, MTA as cofactor; read-out: MTA IC50
[3] = biological target: T1, PRMT5; experiment: PRMT5 biochemical IC50 assay with no cofactor; conditions: PRMT5, no cofactor
From the text: Table 1 indicates IC50 values (μM) against PRMT5 for exemplary compounds in the presence of SAM as cofactor, with no cofactor, and with MTA as cofactor, respectively (columns 4-6). […] Ki values can be calculated from the IC50 values as described in the Examples section. As detailed in the Examples section, for the assay performed in the presence of SAM, IC50=Ki×1.5 (Ki=IC50/1.5).

[4] = test system: HAP1 MTAP-deleted cell line; experiment: Viability assay, MTAP-deleted cell line; format: cell-based; conditions: Homo sapiens, read-out: HAP1 MTAP deleted viability
From the text: Table 1 additionally indicates IC50 values in a viability assay for the MTAP-deleted cell line (column 10), indicating the effect of treatment with compound on cell survival.

[5] = test system: HAP1 MTAP-intact cell line; experiment: SDMA in-cell western assay, HAP1 MTAP-intact; format: cell-based; conditions: Homo sapiens, HAP1, SDMA in-cell western, HAP1 MTAP-intact; read-out: MTAP HAP1 intact IC50
Outline: (§1)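 Compounds were tested in HAP1 cells differing only in MTAP status (endogenous expression versus null). Cellular SDMA levels were then measured by in-cell western, giving an IC50 in each background.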

[6] = test system: HAP1 MTAP-deleted cell line; experiment: SDMA in-cell western assay, HAP1 MTAP-deleted; format: cell-based; conditions: for IC50: Homo sapiens, HAP1, SDMA in-cell western, HAP1 MTAP-deleted; for MTAP intact/deleted ratio: SDMA in-cell western
Outline: as §1

[7] = HAP1, viability assay, MTAP-deleted cell line
[8] = read-out: HAP1 MTAP deleted IC50
[9] = IC50 ratio HAP1 MTAP-intact / HAP1 MTAP-deleted
[10] = read-out: HAP 1 MTAP deleted IC50
[11] = HAP1, viability IC50, MTAP-deleted cell line
[12] = IC50 ratio HAP1 MTAP-intact vs HAP1 MTAP-deleted
[13] = read-out: No Cofactor/ rel IC50

T1 sequence (O14744 whole entry): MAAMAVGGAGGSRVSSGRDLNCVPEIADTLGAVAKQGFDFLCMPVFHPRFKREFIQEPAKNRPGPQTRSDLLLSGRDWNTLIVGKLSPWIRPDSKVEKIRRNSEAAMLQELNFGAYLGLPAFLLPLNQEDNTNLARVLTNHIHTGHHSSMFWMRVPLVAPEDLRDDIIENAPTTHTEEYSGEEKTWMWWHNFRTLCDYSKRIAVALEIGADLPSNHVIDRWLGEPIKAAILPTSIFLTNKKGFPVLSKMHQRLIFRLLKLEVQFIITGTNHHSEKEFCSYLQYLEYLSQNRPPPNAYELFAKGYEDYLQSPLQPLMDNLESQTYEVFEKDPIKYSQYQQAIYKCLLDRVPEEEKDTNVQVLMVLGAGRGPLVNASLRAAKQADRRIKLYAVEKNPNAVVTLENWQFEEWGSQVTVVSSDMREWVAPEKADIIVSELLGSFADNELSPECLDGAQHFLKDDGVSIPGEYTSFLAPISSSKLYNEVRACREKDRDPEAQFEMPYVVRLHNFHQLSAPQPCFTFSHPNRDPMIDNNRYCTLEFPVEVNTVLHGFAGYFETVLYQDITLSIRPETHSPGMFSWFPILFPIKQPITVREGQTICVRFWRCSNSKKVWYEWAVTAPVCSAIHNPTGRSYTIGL
T1 sequence (Q9BQA1 whole entry partner): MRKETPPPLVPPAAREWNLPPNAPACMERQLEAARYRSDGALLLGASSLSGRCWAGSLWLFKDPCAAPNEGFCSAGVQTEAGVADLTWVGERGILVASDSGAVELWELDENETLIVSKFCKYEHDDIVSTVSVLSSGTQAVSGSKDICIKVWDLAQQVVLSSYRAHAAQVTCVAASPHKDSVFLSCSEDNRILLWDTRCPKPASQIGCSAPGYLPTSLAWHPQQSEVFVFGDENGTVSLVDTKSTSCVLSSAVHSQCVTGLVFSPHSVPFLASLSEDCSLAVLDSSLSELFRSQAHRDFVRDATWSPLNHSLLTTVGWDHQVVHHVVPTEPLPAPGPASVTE

IC50 [1] [nM] | IC50 [2] [nM] | IC50 ([3]; read-out: No Cofactor/rel IC50) [nM] | IC50 [5] [nM] | IC50 [6, 8] [nM] | IC50 [6, 10] [nM] | IC50 [3, 13] [nM] | Structure (SMILES) | IC50 [4, 7] [nM] | MTAP intact/deleted ratio [6, 9] | IC50 [4, 11] [nM] | MTAP intact/deleted ratio [6, 12] | IC50 ([4]; HAP1, viability assay, HAP1 MTAP-deleted) [nM] | IC50 ([4]; HAP1, viability, HAP1 MTAP-deleted cell line) [nM]
> 500 | > 500 | > 500 | > 1000 | > 1000 | – | – | CNc1ccc([C@@H]2CC[C@@H](C)CN2C(=O)C(=O)Nc2cnc(OC)c(C(N)=O)c2)cn1 (single isomer, unassigned) [Compound 448] | > 10000 | C (an IC50 ratio of less than 3 fold) | – | – | – | –
> 500 | 50 to 500 | 50 to 500 | > 1000 | – | 100 to 1000 | – | C[C@@H]1C[C@@H](F)[C@@H](c2ccc(F)cc2)N(C(=O)C(=O)Nc2cncc(C(N)=O)c2)C1 (racemic) [Compound 898, 5-[[2-[(2R,3R,5R)-3-fluoro-2-(4-fluorophenyl)-5-methyl-1-piperidyl]-2-oxo-acetyl]amino]pyridine-3-carboxamide] | 1000 to 10000 | A (an IC50 ratio greater than or equal to 10 fold) | – | – | – | –
50 to 500 | < 50 | 50 to 500 | > 1000 | – | 100 to 1000 | – | C[C@H]1CC[C@H](c2cn[nH]c2)N(C(=O)C(=O)Nc2cncc(C(N)=O)c2)C1 (single isomer, unassigned) [Compound 942] | > 10000 | A (an IC50 ratio greater than or equal to 10 fold) | – | – | – | –
> 500 | > 500 | > 500 | > 1000 | – | > 1000 | – | C[C@@H]1CC[C@@H]([C@H]2CCC[C@H](O)C2)N(C(=O)C(=O)Nc2cncc(C(N)=O)c2)C1 (single isomer, unassigned) [Compound 530] | – | C (an IC50 ratio of less than 3 fold) | > 10000 | – | – | –
50 to 500 | < 50 | 50 to 500 | > 1000 | < 100 | – | – | Cc1cc([C@@H]2CC[C@@H](C)CN2C(=O)C(=O)Nc2cncc(C(N)=O)c2)cc(C)c1O (single isomer, unassigned) [Compound 335] | 1000 to 10000 | A (an IC50 ratio greater than or equal to 10 fold) | – | – | – | –
< 50 | < 50 | < 50 | 100 to 1000 | < 100 | – | – | Cc1cc(NC(=O)C(=O)N2C[C@@H](C)CC[C@@H]2c2ccc3sc([C@H]4CCN(C)C(C)(C)C4)nc3c2)cnc1C (racemic) [Compound 1113, N-(5,6-dimethyl-3-pyridyl)-2-oxo-2-[(2R,5S)-5-methyl-2-[2-[(4S)-1,2,2-trimethyl-4-piperidyl]-1,3-benzothiazol-5-yl]-1-piperidyl]acetamide] | < 1000 | – | – | A (an IC50 ratio greater than or equal to 10 fold) | – | –
50 to 500 | < 50 | 50 to 500 | > 1000 | 100 to 1000 | – | – | C[C@@H]1CC[C@@H](c2ccc(C#N)cc2)N(C(=O)C(=O)Nc2cncc(C(N)=O)c2)C1 (racemic) [Compound 246, rac-5-{2-[(2R,5S)-2-(4-Cyanophenyl)-5-methylpiperidin-1-yl]-2-oxoacetamido}pyridine-3-carboxamide] | 1000 to 10000 | A (an IC50 ratio greater than or equal to 10 fold) | – | – | – | –
50 to 500 | 50 to 500 | 50 to 500 | > 1000 | – | 100 to 1000 | – | Cc1cc(NC(=O)C(=O)N2C[C@H](C)C[C@H](F)[C@@H]2c2ccc(F)cc2)cnc1N (racemic) [Compound 940, N-(6-amino-5-methyl-3-pyridyl)-2-[(2R,3R,5S)-3-fluoro-2-(4-fluorophenyl)-5-methyl-1-piperidyl]-2-oxo-acetamide] | 1000 to 10000 | A (an IC50 ratio greater than or equal to 10 fold) | – | – | – | –
> 500 | > 500 | > 500 | > 1000 | > 1000 | – | – | Cc1cc(NC(=O)C(=O)N2C[C@H](C)CC[C@H]2c2ccc(CO)cc2)cnc1N (single isomer, unassigned) [Compound 802] | – | B (an IC50 ratio greater than or equal to 3 fold but lower than 10 fold) | – | – | > 10000 | –
< 50 | < 50 | – | 100 to 1000 | – | < 100 | < 50 | CCc1cc(NC(=O)C(=O)N2C[C@@H](C)CC[C@@H]2c2cccc(N3CCN(C)CC3)c2)cnc1N [Compound 1367, N-(6-amino-5-ethylpyridin-3-yl)-2-((2R,5S)-5-methyl-2-(3-(4-methylpiperazin-1-yl)phenyl)piperidin-1-yl)-2-oxoacetamide] | – | A (an IC50 ratio greater than or equal to 10 fold) | – | – | – | < 1000
50 to 500 | 50 to 500 | 50 to 500 | > 1000 | 100 to 1000 | – | – | C[C@@H]1CC[C@@H](c2ccnc(C(F)(F)F)c2)N(C(=O)C(=O)Nc2cncc(C(N)=O)c2)C1 (racemic) [Compound 221, rac-5-{2-[(2R,5S)-5-Methyl-2-[2-(trifluoromethyl)pyridin-4-yl]piperidin-1-yl]-2-oxoacetamido}pyridine-3-carboxamide] | > 10000 | A (an IC50 ratio greater than or equal to 10 fold) | – | – | – | –
> 500 | > 500 | > 500 | > 1000 | – | > 1000 | – | C[C@@H]1CC[C@@H](c2ccc3sc(C(F)(F)F)nc3c2)N(C(=O)C(=O)Nc2cncc(C(N)=O)c2)C1 (single isomer, unassigned) [Compound 1029] | > 10000 | B (an IC50 ratio greater than or equal to 3 fold but lower than 10 fold) | – | – | – | –
50 to 500 | < 50 | 50 to 500 | > 1000 | – | 100 to 1000 | – | Cc1cc(NC(=O)C(=O)N2C[C@H](C)CC[C@H]2c2cccc3[nH]cnc23)cnc1N (single isomer, unassigned) [Compound 949] | 1000 to 10000 | A (an IC50 ratio greater than or equal to 10 fold) | – | – | – | –
> 500 | > 500 | > 500 | > 1000 | – | > 1000 | – | CC(=O)N[C@H]1C[C@H]([C@H]2CC[C@H](C)CN2C(=O)C(=O)Nc2cnc(N)c(C)c2)C1 (single isomer, unassigned) [Compound 563] | – | C (an IC50 ratio of less than 3 fold) | > 10000 | – | – | –
50 to 500 | 50 to 500 | – | > 1000 | – | 100 to 1000 | 50 to 500 | NC(=O)c1cncc(NC(=O)C(=O)N2CCCCC2c2ccccc2)c1N (stereo not drawn) [Compound 119, 4-amino-5-[[2-oxo-2-(2-phenyl-1-piperidyl)acetyl]amino]pyridine-3-carboxamide] | > 10000 | A (an IC50 ratio greater than or equal to 10 fold) | – | – | – | –
50 to 500 | < 50 | 50 to 500 | > 1000 | – | 100 to 1000 | – | CNS(=O)(=O)c1cccc([C@@H]2CC[C@@H](C)CN2C(=O)C(=O)Nc2cnc(N)c(C)c2)c1 (racemic) [Compound 691, N-(6-amino-5-methyl-3-pyridyl)-2-[(2S,5R)-5-methyl-2-[3-(methylsulfamoyl)phenyl]-1-piperidyl]-2-oxo-acetamide] | – | A (an IC50 ratio greater than or equal to 10 fold) | 1000 to 10000 | – | – | –
50 to 500 | < 50 | 50 to 500 | > 1000 | 100 to 1000 | – | – | Cc1cc(NC(=O)C(=O)N2CCCCC2C2CCC2)cnc1N (stereo not drawn) [Compound 182, N-(6-amino-5-methyl-3-pyridyl)-2-(2-cyclobutyl-1-piperidyl)-2-oxo-acetamide] | > 10000 | A (an IC50 ratio greater than or equal to 10 fold) | – | – | – | –
< 50 | < 50 | < 50 | 100 to 1000 | < 100 | – | – | CCc1cc(NC(=O)C(=O)N2C[C@@H](C)CC[C@@H]2c2ccc(N3C[C@H]4CCN(C)C[C@H]4C3)cc2)cnc1N (racemic) [Compound 1167, N-(6-amino-5-ethyl-3-pyridyl)-2-oxo-2-[rac-(2R,5S)-5-methyl-2-[4-[rac-(3aS,7aS)-5-methyl-3,3a,4,6,7,7a-hexahydro-1H-pyrrolo[3,4-c]pyridin-2-yl]phenyl]-1-piperidyl]acetamide] | < 1000 | – | – | A (an IC50 ratio greater than or equal to 10 fold) | – | –
